The values below are quoted from earlier work in patent US20220249374A1, “RADIOTHERAPEUTIC MICROSPHERES” (priority 2019, published 2022).

For the data set, the system named is HCC. The settings on record: patients with HCC too advanced for resection or localized ablation.

Structures are written as SMILES.

Regarding `CNC(=O)c1cc(Oc2ccc(NC(=O)Nc3ccc(Cl)c(C(F)(F)F)c3)cc2)ccn1` [Nexavar, sorafenib], the prolongation of survival result is given as “three”.
